From paper PMC9093066 (Bioorganic & Medicinal Chemistry, 2022)

Experiments:
[1] = molecular target: T1, SARS-CoV-2 Mac1 (Severe acute respiratory syndrome coronavirus 2, UniProt P0DTD1); format: binding; settings: for SARS CoV2 Mac1 Alpha (IC50): AlphaScreen ADP-ribose binding, IC50 ± SD of three replicates
[2] = molecular target: T1, SARS-CoV-2 Mac1; format: binding; settings: DSF, 300 µM compound, ± SD of three replicates
[3] = molecular target: T2, NudF ADP-ribose pyrophosphatase (Escherichia coli, UniProt Q93K97); assay: NudF-mediated counterscreen of ADPr-Glo assay; format: biochemical; settings: NudF only with free ADP-ribose
T2 sequence (Q93K97 1-209): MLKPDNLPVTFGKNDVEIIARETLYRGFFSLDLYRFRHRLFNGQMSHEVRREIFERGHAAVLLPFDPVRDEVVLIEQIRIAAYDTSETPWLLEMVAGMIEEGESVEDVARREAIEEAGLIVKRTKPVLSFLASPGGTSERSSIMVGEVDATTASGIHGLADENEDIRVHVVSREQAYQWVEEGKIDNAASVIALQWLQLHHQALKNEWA

[4] = test system: panel of MAR binding proteins from viruses and humans
[5] = molecular target: T1, SARS-CoV-2 Mac1; format: biochemical; settings: ADPr-Glo dose response, n = 2
[6] = test system: Mac1; settings: cited from earlier work

## Methyl (R)-4-(7H-pyrrolo[2,3–d]pyrimidin-4-yl)piperazine-2-carboxylate ●TFA [Compound 10b]
[1]
  SARS CoV2 Mac1 Alpha (IC50): Inactive

## O=C(O)C1CCN(c2ncnc3[nH]ccc23)CC1 [Compound 6h, 1-(7H-pyrrolo[2,3–d]pyrimidin-4-yl)piperidine-4-carboxylic acid]
[1]; vs fragment 1
  fold improvement of potency over the initial fragment: ~10 fold
[2]
  Δ Tm (°C) @300 µM: > 1 °C

## CCOC(=O)[C@H](CC(C)C)Nc1ncnc2[nH]ccc12 [Compound 14b, Ethyl (7H-pyrrolo[2,3–d]pyrimidine-4-yl)-L-leucinate]
[1]
  SARS CoV2 Mac1 Alpha (IC50): completely inactive

## O=C(O)C1CCCN(c2ncnc3[nH]ccc23)C1 (centres unmarked) [Compound 6g, 1-(7H-pyrrolo[2,3–d]pyrimidin-4-yl)piperidine-3-carboxylic acid]
[3]
  activity in NudF-mediated counterscreen: Neither compound demonstrated any activity

## c1ccc2c(CCNc3ncnc4[nH]ccc34)c[nH]c2c1 [Compound 20, N-(2-(1H-indol-3-yl)ethyl)-7H-pyrrolo[2,3–d]pyrimidin-4-amine]
[1]
  fold less potent than 15c: approximately 7 fold

## O=C(O)[C@H](Cc1c[nH]c2ccccc12)Nc1ncnc2[nH]ccc12 [Compound 15c, (7H-pyrrolo[2,3–d]pyrimidin-4-yl)-L-tryptophan]
[4]
  selectivity in panel of ADP-ribose binding proteins: remarkably selective for coronavirus macrodomains
[5]
  inhibition of Mac1 enzyme (ADP-ribosylhydrolase) activity: dose-dependent inhibition
[3]
  activity in NudF-mediated counterscreen: Neither compound demonstrated any activity

## Cc1ccc(C(=O)Nc2ccc(S(=O)(=O)O)c3cc(S(=O)(=O)O)cc(S(=O)(=O)O)c23)cc1NC(=O)c1cccc(NC(=O)Nc2cccc(C(=O)Nc3cc(C(=O)Nc4ccc(S(=O)(=O)O)c5cc(S(=O)(=O)O)cc(S(=O)(=O)O)c45)ccc3C)c2)c1 [Suramin]
[6]
  stabilization of the protein in DSF assay: concentration dependent stabilization of the protein

## O=C(O)[C@@H]1CCC[C@@H]1Nc1ncnc2[nH]ccc12 [Compound 19, (1R, 2S)-2-((7H-pyrrolo[2,3–d]pyrimidin-4-yl)amino)cyclopentane-1-carboxylic acid]
[2]
  Δ Tm (°C) @300 µM: > 1 °C

## COC(=O)[C@@H]1CN(c2ncnc3[nH]ccc23)CCN1.O=C(O)C(F)(F)F [Compound 10a, Methyl (S)-4-(7H-pyrrolo[2,3–d]pyrimidin-4-yl)piperazine-2-carboxylate ●TFA]
[1]
  SARS CoV2 Mac1 Alpha (IC50): Inactive

## O=C(O)CNc1ncnc2[nH]ccc12 [Compound 15d, (7H-pyrrolo[2,3–d]pyrimidin-4-yl)glycine]
[1]
  SARS CoV2 Mac1 Alpha (IC50): did not demonstrate any inhibitory effect

## CC(C)C[C@H](Nc1ncnc2[nH]ccc12)C(=O)O [Compound 15b, (7H-pyrrolo[2,3–d]pyrimidine-4-yl)-L-leucinate]
[1]
  SARS CoV2 Mac1 Alpha (IC50): completely inactive
